Assay results: US4652562A, “Quinoline derivatives and pharmaceutical compositions” (Egis Gyogyszergyar, priority 1985, dated 1987)

Columns and labels:
[1] = system: hypoxic Chinese hamster ovary cells; test: Radiosensitization of hypoxic Chinese hamster ovary cells, radiation survival curves (Do, Dq, N); assay type: cell-based; settings: for Dq (quasi threshold dose): Dq = Do ln N, minimum dose necessary to appearance of cell killing; for Do (mean lethal dose): hypoxic CHO cells, untreated controls 3.75-3.8 Gy
Description: As is known [T. W. Wong, G. F. Whitmore and S. Gulyas: Radiat. Res. 75, 541-555 (1978)], parameters derived from radiation survival curves can be used for characterization of modifying effect, e.g. the slope of the exponential portion of survival curve and the calculated mean lethal dose (Do) as well as the overall extrapolation number (N).
The dose multiplication radiosensitization (DMR) means the ability of a given compound to increase the slope of the survival curve and consequently to decrease the mean lethal dose (Do).
On the effect of dose-additive radiosensitization (DAR) there is a reduction in the shoulder region of radiation survival curves, and in the best cases the sigmoid type survival curves characteristic of mammalian cells change into exponential ones.
For the degree of radiation modification, the quasi threshold dose (Dq) can be used, as well. This dose represents the width of shoulder region of radiation survival curves (Dq =Do ln N). The meaning of this measure from radiobiological point of view is the minimal dose necessary to produce appreciable cell killing effect.
1. […] According to the literature data, studies were undertaken on the same test-systems [Chinese hamster ovary cells cultured in vitro (CHO) and under similar circumstances (oxygenic- and hypoxic conditions, α-MEM with 10% foetal calf serum)].
Experiments were undertaken with hypoxic Chinese hamster ovary cells.
4. Determination of the quasi threshold dose (Dq). These values indicate the minimum dose necessary to the appearance of the end point (cell killing) studied from biological point of view.

[2] = Toxicity in test animals (CFLP mice), LD50 per os; settings: mouse, in vivo, po
[3] = cited from earlier work
[4] = system: hypoxic cells; settings: literature (Wong et al. 1978); cited from earlier work

SMILES	Dq (quasi threshold dose) [1] [Gy]	Do (mean lethal dose) [1] [Gy]	LD50 [2] [mg/kg]	dose-multiplicative or dose-additive radiosensitization ([3]; 0° C., depending on drug concentration, Harris et al. 1975)	toxicity ([3]; 37° C.)	Dq (quasi threshold dose) ([1]; listed as misonidazole)	degree of dose-multiplicative and dose-additive radiosensitization [4]
NC(=Nc1c([N+](=O)[O-])cnc2ccccc12)N1CCOCC1 [Example 1, N-(3-Nitro-4-quinolyl)-morpholino carboxamidine]	0	1.7	> 2000	–	–	–	–
CN(C)C(=O)N=NC(=O)N(C)C [Diamide, tetramethyl-diazene-dicarboxamide]	–	3.3	–	either dose-multiplicative- or dose-additive-radiosensitization could be observed at a lower temperature (0° C.) depending on the drug concentration applied, but both effects did not appear simultaneously	extremely toxic	–	–
COCC(O)Cn1ccnc1[N+](=O)[O-] (stereo not shown) [Misonidazole, 3-methoxy-1-(2-nitro-1-imidazole-1-yl)-2-propanol]	5	2.5	–	–	–	above 5 Gy	only in a small degree
